# Source: patent publication US20020049157A1, “Use of proteasome inhibitors for treating cancer, inflammation, autoimmune disease, graft rejection and septic shock” (priority 1998, published 2002)
# Experiments:
# Bax, Bak and Bad = test: Immunoblotting of Bax, Bak and Bad in Jurkat cells; type: cell-based; settings: lactacystin 6 μM
# Procedure: Jurkat cells were treated with lactacystin (6 μM) for 5 h (lanes 2 and 4 of panel A), 4 h (lane 2 of panel B) or 7 h (lane 3 of panel B), lane 1 in panels A and B is untreated control samples. The cells were separated into mitochondrial (mito in panel A and mitochondria in panel B) and cytosolic (cytosol in panel A) fractions, and the lysate of these two fractions analyzed by immunoblotting using goat anti-Bik, and rabbit anti-Bax, Bak and Bad Ab (all from Santa Cruz Biotech, Santa Cruz, Calif.) followed by enhanced chemiluminescence (ECL, kit from Amersham).
# Peripheral blood T cells = test: S phase entry of mitogen-stimulated peripheral blood T cells (flow cytometry); type: cell-based, human; settings: PHA; for cell death: evaluated at 40 h, data not shown
# Procedure: C and D. LAC blocks the S phase entry of the mitogen-stimulated peripheral blood T cells Peripheral blood T cells were stimulated with PHA (2 μ/ml) in the absence or presence of LAC (10 μM, added at 0 h, 16 h, 24 h, or 40 h, as indicated in the bottom of the panels). For the flow cytometry analysis of the cell cycle progress, the cells were harvested at 0 h, 1 6 h, 40 h and 64 h as indicated on the top of the panels (FIG. 6C). For ^3H-thymidine uptake, the triplicated cell samples were pulsed at 48 h and harvested at 64 h (FIG. 6D).
# T cells from PBMC were at Go when isolated. After 16 h stimulation with PHA, they remained before the S phase (FIG. 6C). At 40 h, about 20% of the cells were in the S and G2/M phases. The peak of ^3H-thymidine uptake according to a 16 h pulse was between 48 h and 64 h (data not shown), although at 64 h, the cells in the S and G2/M phases were still about 20% (FIG. 6C). The lack of an increase in percentage of cells in the S and G2/M phases at 64 h compared with that at 40 h was likely due to the exit of the cells from the S and G2/M phase. It is to be noted that the cycling T cells in this system never reaches 100%, because about 15% of the cells were non T cells, and an additional 20% were non responsive T cells. Taken the cell proliferation and cell cycle analysis together, the G1/S boundary of the cycling T cells should be between about 35 h and 48 h after the PHA stimulation. The boundary was broad because the synchronization was not ideal.
# In this model, the role of the proteasome in the S phase entry was examined. […] We have noticed that when the cell viability was evaluated at 40 h, there was an increase of cell death comparing the 16 h addition of LAC with the 0 h addition (about 25% vs about 17%, data not shown). The increased cell death was also reflected in the cells with <2N DNA in the 40 h histogram. However, such a viability was still reasonable and would not invalidate our conclusion. […] The discrepancy could be explained by the fact that the 20% cells were already in the S and G2/M phases at 40 h when LAC was added. LAC prevented additional cells from entering into the S phase, therefore the lack ^3H-thymidine uptake.
# Flow cytometry was employed for cell cycle analysis for T cells and Jurkat cells as described before (Shan et al., 1994, supra) using propidium iodide staining.
# Tonsillar T cells = test: Electron microscopy of T cells; type: cell-based, human; settings: LAC 10 μM, 24 h
# Procedure: A and B: Morphology of resting T cells treated with LAC. Tonsillar T cells were culture in the absence (A) or presence (B) of LAC ([…]) for 24 h, and the cells were examined by EM.
# C and D: Morphology of activated T cells treated with LAC. Tonsillar T cells were first activated with PHA (2 μg/ml) for 40 h. The cells were then cultured in the absence (C) or presence (D) of LAC (10 μM) for additional 24h, and were examined with EM.
# Electron microscopy was also employed to examine the mode of cell death induced by LAC. The resting T cells (cells cultured in medium, FIG. 3A), activated T cells (40 h after PHA activation, FIG. 3C), and Jurkat cells (FIG. 3E) were all healthy looking. […] The resting T cells treated with LAC (10 μM) for 24 h were still healthy (FIG. 3B).
# T cells and Jurkat cells were examined by electron microscopy as described by Tsao and Duguid (Tsao et al., 1987, Exp. Cell Res. 168:365).
compound,measurement,setting,value
"CC(=O)N[C@@H](CSC(=O)[C@]1([C@@H](O)C(C)C)NC(=O)[C@H](C)[C@@H]1O)C(=O)O [LAC, lactacystin]","amounts of Bax, Bak and Bad","Bax, Bak and Bad",does not appear to have altered
same,S phase entry,"Peripheral blood T cells; LAC 10 μM added once at 16 h, examined at 40 h",totally block the S phase entry
same,cell death,Peripheral blood T cells; LAC added at 0 h,about 17%
same,cell death,Peripheral blood T cells; LAC added at 16 h,about 25%
same,percentage of the population in the S and G2/M phase,"Peripheral blood T cells; LAC added at 40 h or not, at 64 h",no difference
same,nuclear condensation by electron microscopy,Tonsillar T cells; activated T cells (40 h after PHA),frequently observed
same,morphology by electron microscopy,Tonsillar T cells; resting T cells,still healthy
